According to patent US12157730B2, “Heteroaryl derivative, method for producing same, and pharmaceutical composition comprising same as effective component” (VORONOI INC., priority 2019, dated 2024):

These compounds were tested against T1, Ba/F3 cell EGFR Exon20 ins NPH (Homo sapiens, UniProt P00533, INS773NPH) (assay: Ba/F3 cell proliferation suppression, EGFR Exon20 ins NPH). Details: GI50 class; Ba/F3 cell line with NPH inserted at Exon20 of EGFR; 72 hours.
T1 construct: expressed in transfected cells; host or cells: Ba/F3
Assay type: cell-based
How it was run: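 Growth suppression determined as GI50 following 72 h exposure across 12 concentrations up to 50 um, with viability by luminescent ATP assay (CellTiter-Glo).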

Structure (SMILES)	Ba/F3 (NPH) Activity
C=CC(=O)Nc1cc(Nc2cc(N3OCC[C@@H]3c3cccc(F)c3F)ncn2)c(OC)cc1N1CC2CCC(C1)O2 [compound 887, N-(2-(8-oxa-3-azabicyclo[3.2.1]octan-3-yl)-5-((6-((R)-3-(2,3-difluorophenyl)isoxazolidine-2-yl)pyrimidine-4-yl)amino)-4-methoxyphenyl) acrylamide]	A (GI50 < 50 nM)
C=CC(=O)Nc1cc(Nc2cc(N3OCC[C@@H]3c3cccc(F)c3)ncn2)c(OC)cc1N1CCN(C2COC2)CC1 [compound 792, N-(5-((6-((R)-3-(3-fluorophenyl)isoxazolidine-2-yl)pyrimidine-4-yl)amino)-4-methoxy-2-(4-(oxetane-3-yl)piperazine-1-yl)phenyl) acrylamide]	A (GI50 < 50 nM)
C=CC(=O)Nc1cc(Nc2cc(N3OCC[C@@H]3c3ccc(F)c(F)c3F)ncn2)c(OC)cc1N1CCC(N2C[C@@H]3C[C@H]2CO3)CC1 [compound 574, N-(2-(4-((1S,4S)-2-oxa-5-azabicyclo [2.2.1]heptane-5-yl)piperidine-1-yl)-4-methoxy-5-((6-((R)-3-(2,3,4-trifluorophenyl)isoxazolidine-2-yl)pyrimidine-4-yl)amino)phenyl)acrylamide]	A (GI50 < 50 nM)
C=CC(=O)Nc1cc(Nc2cc(N3OCC[C@@H]3c3cccc(OC)c3)ncn2)c(OC)cc1N1CCN(C)CC1 [Example 25, N-(4-methoxy-5-((6-((R)-3-(3-methoxyphenyl)isoxazolidine-2-yl)pyrimidine-4-yl)amino)-2-(4-methylpiperazine-1-yl)phenyl) acrylamide]	B (50 nM ≤ GI50 < 500 nM)
C=CC(=O)Nc1cc(Nc2cc(N3OCC[C@@H]3c3cccc(Cl)c3)ncn2)c(OC)cc1N1CCC(N(C)C)CC1 [compound 361, N-(5-((6-((R)-3-(3-chlorophenyl)isoxazolidine-2-yl)pyrimidine-4-yl)amino)-2-(4-(dimethylamino)piperidine-1-yl)-4-methoxyphenyl) acrylamide]	A (GI50 < 50 nM)
C=CC(=O)Nc1cc(Nc2cc(N3OCC[C@@H]3c3ccc(F)cc3F)ncn2)c(OC)cc1N(C)CCN(C)C [compound 350, N-(5-((6-((R)-3-(2,4-difluorophenyl)isoxazolidine-2-yl)pyrimidine-4-yl)amino)-2-((2-(dimethylamino)ethyl)(methyl)amino)-4-methoxyphenyl) acrylamide]	A (GI50 < 50 nM)
C=CC(=O)Nc1cc(Nc2cc(N3OCC[C@@H]3c3cc(F)cc(F)c3)ncn2)c(OC)cc1N1CCC(N2C[C@H](C)N(C3CC3)C[C@@H]2C)CC1 [Example 113, N-(2-(4-((2S,5S)-4-cyclopropyl-2,5-dimethylpiperazine-1-yl)piperidine-1-yl)-5-((6-((R)-3-(3,5-difluorophenyl)isoxazolidine-2-yl)pyrimidine-4-yl)amino)-4-methoxyphenyl) acrylamide]	A (GI50 < 50 nM)
C=CC(=O)Nc1cc(Nc2cc(N3OCC[C@@H]3c3ccc(Cl)c(Cl)c3)ncn2)c(OC)cc1N1CCN(CC)CC1 [compound 672, N-(5-((6-((R)-3-(3,4-dichlorophenyl)isoxazolidine-2-yl)pyrimidine-4-yl)amino)-2-(4-ethylpiperazine-1-yl)-4-methoxyphenyl) acrylamide]	A (GI50 < 50 nM)
C=CC(=O)Nc1cc(Nc2cc(N3OCC[C@@H]3c3ccc(F)cc3F)ncn2)c(OC)cc1N1C[C@H]2C[C@@H]1CO2 [compound 353, N-(2-((1R,4R)-2-oxa-5-azabicyclo[2.2.1]heptane-5-yl)-5-((6-((R)-3-(2,4-difluorophenyl)isoxazolidine-2-yl)pyrimidine-4-yl)amino)-4-methoxyphenyl) acrylamide]	A (GI50 < 50 nM)
C=CC(=O)Nc1cc(Nc2cc(N3OCC[C@@H]3c3cccc(Cl)c3C)ncn2)c(OC)cc1N1CCC(N2CCN(C)CC2)CC1 [compound 485, N-(5-((6-((R)-3-(3-chloro-2-methylphenyl)isoxazolidine-2-yl)pyrimidine-4-yl)amino)-4-methoxy-2-(4-(4-methylpiperazine-1-yl)piperidine-1-yl)phenyl) acrylamide]	A (GI50 < 50 nM)
C=CC(=O)Nc1cc(Nc2cc(N3OCC[C@@H]3c3cc(F)ccc3F)ncn2)c(OC)cc1N1C[C@@H](C)N(CC)[C@@H](C)C1 [compound 878, N-(5-((6-((R)-3-(2,5-difluorophenyl)isoxazolidine-2-yl)pyrimidine-4-yl)amino)-2-((3S,5R)-4-ethyl-3,5-dimethylpiperazine-1-yl)-4-methoxyphenyl) acrylamide]	A (GI50 < 50 nM)
C=CC(=O)Nc1cc(Nc2cc(N3OCC[C@@H]3c3cc(F)ccc3F)ncn2)c(OC)cc1N1CCC(N2CCN(C3CCC3)CC2)CC1 [Example 77, N-(2-(4-(4-cyclobutylpiperazine-1-yl)piperidine-1-yl)-5-((6-((R)-3-(2,5-difluorophenyl)isoxazolidine-2-yl)pyrimidine-4-yl)amino)-4-methoxyphenyl) acrylamide]	A (GI50 < 50 nM)
C=CC(=O)Nc1cc(Nc2cc(N3OCC[C@@H]3c3cc(F)cc(F)c3)ncn2)c(OC)cc1N1CCC(N2C[C@@H](C)O[C@@H](C)C2)CC1 [Example 266, N-(5-((6-((R)-3-(3,5-difluorophenyl)isoxazolidine-2-yl)pyrimidine-4-yl)amino)-2-(4-((2S,6R)-2,6-dimethylmorpholino)piperidine-1-yl)-4-methoxyphenyl) acrylamide]	A (GI50 < 50 nM)
C=CC(=O)Nc1cc(Nc2cc(N3OCC[C@@H]3c3ccc(Cl)c(F)c3)ncn2)c(OC)cc1N1CCN(CC)CC1 [compound 798, N-(5-((6-((R)-3-(4-chloro-3-fluorophenyl)isoxazolidine-2-yl)pyrimidine-4-yl)amino)-2-(4-ethylpiperazine-1-yl)-4-methoxyphenyl) acrylamide]	A (GI50 < 50 nM)
C=CC(=O)Nc1cc(Nc2cc(N3OCC[C@@H]3c3ccc(Cl)cc3)ncn2)c(OC)cc1N1CCC(N2C[C@@H]3C[C@H]2CO3)CC1 [compound 866, N-(2-(4-((1S,4S)-2-oxa-5-azabicyclo [2.2.1]heptane-5-yl)piperidine-1-yl)-5-((6-((R)-3-(4-chlorophenyl)isoxazolidine-2-yl)pyrimidine-4-yl)amino)-4-methoxyphenyl) acrylamide]	A (GI50 < 50 nM)
C=CC(=O)Nc1cc(Nc2cc(N3OCC[C@@H]3c3c(F)ccc(F)c3F)ncn2)c(OC)cc1N1CCC(N2CCN(C3CCC3)CC2)CC1 [Example 194, N-(2-(4-(4-cyclobutylpiperazine-1-yl)piperidine-1-yl)-4-methoxy-5-((6-((R)-3-(2,3,6-trifluorophenyl)isoxazolidine-2-yl)pyrimidine-4-yl)amino)phenyl)acrylamide]	A (GI50 < 50 nM)
C=CC(=O)Nc1cc(Nc2cc(N3OCC[C@@H]3c3cccc(Cl)c3F)ncn2)c(OC)cc1N1CCC(N2CCN(C(C)C)CC2)CC1 [compound 707, N-(5-((6-((R)-3-(3-chloro-2-fluorophenyl)isoxazolidine-2-yl)pyrimidine-4-yl)amino)-2-(4-(4-isopropylpiperazine-1-yl)piperidine-1-yl)-4-methoxyphenyl) acrylamide]	A (GI50 < 50 nM)
C=CC(=O)Nc1cc(Nc2cc(N3OCC[C@@H]3c3ccc(F)c(Cl)c3)ncn2)c(OC)cc1N1CCC(N2CCC3(CC2)CC3)CC1 [compound 872, N-(2-(4-(6-azaspiro [2.5]octan-6-yl)piperidine-1-yl)-5-((6-((R)-3-(3-chloro-4-fluorophenyl)isoxazolidine-2-yl)pyrimidine-4-yl)amino)-4-methoxyphenyl) acrylamide]	A (GI50 < 50 nM)
C=CC(=O)Nc1cc(Nc2cc(N3OCC[C@@H]3c3ccc4ccccc4c3)ncn2)c(OC)cc1N1C[C@H](C)O[C@@H](C)C1 [compound 660, N-(2-((2S,6S)-2,6-dimethylmorpholino)-4-methoxy-5-((6-((R)-3-(naphthalene-2-yl)isoxazolidine-2-yl)pyrimidine-4-yl)amino)phenyl)acrylamide]	C (500 nM ≤ GI50 < 5000 nM)
C=CC(=O)Nc1cc(Nc2cc(N3OCC[C@H]3c3c(F)cccc3F)ncn2)c(OC)cc1N1CCC(N2CCC(N(C)C)CC2)CC1 [compound 369, N-(5-((6-((S)-3-(2,6-difluorophenyl)isoxazolidine-2-yl)pyrimidine-4-yl)amino)-2-(4-(dimethylamino)-[1,4'-bipiperidine]-1'-yl)-4-methoxyphenyl) acrylamide]	C (500 nM ≤ GI50 < 5000 nM)
C=CC(=O)Nc1cc(Nc2cc(N3OCC[C@@H]3c3ccccc3)ncn2)c(OC)cc1N1CCC(N2CCN(CC)CC2)CC1 [Example 55, N-(2-(4-(4-ethylpiperazine-1-yl)piperidine-1-yl)-4-methoxy-5-((6-((R)-3-phenylisoxazolidine-2-yl)pyrimidine-4-yl)amino)phenyl) acrylamide]	A (GI50 < 50 nM)
C=CC(=O)Nc1cc(Nc2cc(N3OCC[C@@H]3c3cccc(C#N)c3)ncn2)c(OC)cc1N1CCC(N2CC3CCC(C2)N3C2CC2)CC1 [Example 133, N-(5-((6-((R)-3-(3-cyanophenyl)isoxazolidine-2-yl)pyrimidine-4-yl)amino)-2-(4-(8-cyclopropyl-3,8-diazabicyclo[3.2.1]octan-3-yl)piperidine-1-yl)-4-methoxyphenyl) acrylamide]	B (50 nM ≤ GI50 < 500 nM)
